The target of one test is E. coli LDC (Escherichia coli, UniProt P76008). As to the kind of experiment: LDC assay (tetrapeptide cleavage, Amplex Red detection) with E. coli LDC. The test is classed as biochemical. How it is done: (§1) The assay consists of two parts: (i) cleavage of peptide substrate by LDC enzyme, and (ii) detection of the D-Ala cleavage product using Amplex Red. Conditions for E. coli LDC cleavage were established using a modification of conditions presented by Templin et al. (1999). The cleavage assay was assembled in black 96 half area flat bottom plates (Costar, 3694) (Corning Life Sciences, Acton, Mass.) and consisted of LDC at the indicated concentration in 30 μl (microliters) of 100 mM (milliMolar) Tris-HCl pH 8.5 containing 25 μg/ml of bovine serum albumin (B4287 Sigma, St. Louis, Mo.). “Tetrapeptide Lys” substrate L-Ala-γ-D-Glu-L-Lys-D-Ala was synthesized by SynPep, Inc. (Dublin, Calif.). […] Inhibitor compounds were added to the enzyme in 2 μl of 30% dimethyl sulfoxide and incubated for 10 minutes at room temperature, prior to the addition of tetrapeptide. The negative control received 2 μl of 30% dimethyl sulfoxide alone without any compound.
(§2) The principle of the detection system is oxidation of D-Ala by the enzyme D-amino acid oxidase to produces hydrogen peroxide. […] The detection reaction was incubated for 30 minutes at 37° C., and the plates were read on a SpectraMax Gemini (excitation 530 nm, emission 590 nm) (Molecular Devices, Sunnyvale, Calif.). […]

Another test has as its target T1, PA LDC (Pseudomonas aeruginosa, UniProt Q9HTZ1).
T1 construct: hexahistidine (pET14b N-terminal leader) (N); made in house; host or cells: E. coli BL21 (plasmid pPALDC1, pET14b)
As to the kind of experiment: LDC assay (tetrapeptide Lys cleavage, Amplex Red detection of D-Ala) with purified PA LDC. The test is classed as biochemical. As to conditions: 10 minutes preincubation at room temperature before tetrapeptide substrate, read-out: IC50, inhibition of PA LDC. The procedure:
as §1, §2

Another test has as its target LDC (Escherichia coli, UniProt P76008). As to conditions: Templin et al., 1999; cited from earlier work.

E. coli LDC, sequence (P76008 whole entry): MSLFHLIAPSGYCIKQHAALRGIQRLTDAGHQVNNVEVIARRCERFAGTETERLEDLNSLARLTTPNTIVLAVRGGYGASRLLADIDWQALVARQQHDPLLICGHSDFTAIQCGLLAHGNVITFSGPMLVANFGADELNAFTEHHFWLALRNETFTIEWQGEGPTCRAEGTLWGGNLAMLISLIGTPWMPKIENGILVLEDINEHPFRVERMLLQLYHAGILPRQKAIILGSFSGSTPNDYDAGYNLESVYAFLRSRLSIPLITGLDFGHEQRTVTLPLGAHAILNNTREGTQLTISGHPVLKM
T1 sequence (Q9HTZ1 whole entry): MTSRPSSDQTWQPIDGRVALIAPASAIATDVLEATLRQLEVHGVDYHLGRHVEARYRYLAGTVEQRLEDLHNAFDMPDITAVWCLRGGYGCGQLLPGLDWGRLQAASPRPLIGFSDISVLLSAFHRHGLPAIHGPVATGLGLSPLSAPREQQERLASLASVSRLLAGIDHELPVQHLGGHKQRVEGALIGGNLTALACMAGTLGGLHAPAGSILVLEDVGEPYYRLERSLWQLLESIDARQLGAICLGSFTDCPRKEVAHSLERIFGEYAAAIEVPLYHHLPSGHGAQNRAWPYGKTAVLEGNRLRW
LDC, sequence (P76008 whole entry): as the sequence (P76008 whole entry) above

Regarding `O=C(O)C=CC(=O)c1ccc2c(c1)NC(=O)CO2` [3,4-dihydro-g,3-dioxo-2H-1,4-Benzoxazine-6-crotonic acid], the figures for the IC50 on E. coli LDC and on PA LDC were 12 µM and 170 µM, respectively.
Take `N[C@H](CCOc1ccc(/C(=N/O)C(=O)N[C@H]2CN([C@@H](C(=O)O)c3ccc(O)cc3)C2=O)cc1)C(=O)O` [Nocardicin A]: the “Inhibition of LDC” value on LDC was “inhibited”.
Turning to `O=C(Sc1nc2ccccc2nc1SC(=O)c1cc2ccccc2o1)c1cc2ccccc2o1` [2-Benzofurancarbothioic acid, S,S′-2,3-quinoxalinediyl ester], the results for the IC50 against E. coli LDC and at PA LDC were 1.4 µM and 0.1 µM, respectively.

(Values after patent US20070212705A1, “P[…]-D CARBOX[…], EXPRESSION AND ACTIVITY” (priority 2005, published 2007).)
